Experimental data taken from ChEMBL document CHEMBL2146401, “Synthesis and biological evaluation of novel homochiral carbocyclic nucleosides from 1-amino-2-indanols” (Bioorg Med Chem, 2012).

Columns and labels:
[1] = Cytotoxicity against bovine MDBK cells assessed as cell viability after 72 hrs by MTS/PMS assay; format: cell-based, Bos taurus; conditions: cattle
[2] = Cytotoxicity against human HepG2(2.2.15) cells assessed as cell viability after 72 hrs by MTS/PMS assay; format: cell-based
Human alphaherpesvirus 1 [3] = assay: Antiviral activity against Herpes simplex virus (type 1 / strain F) infected in Vero cells assessed as reduction of number of viral plaques at 31.25 uM after 2 days relative to control; format: functional; conditions: Human alphaherpesvirus 1, strain F, 48 h
[4] = Cytotoxicity against african green monkey Vero cells assessed as cell viability after 72 hrs by MTS/PMS assay; format: cell-based; conditions: chlorocebus sabaeus
Human alphaherpesvirus 1 [5] = assay: Antiviral activity against Herpes simplex virus (type 1 / strain F) infected in Vero cells assessed as reduction of number of viral plaques after 2 days; format: functional, organism-based; conditions: Human alphaherpesvirus 1, strain F, 48 h
[6] = Cytotoxicity against african green monkey Vero cells assessed as cell viability after 2 days by MTS/PMS assay; format: cell-based; conditions: chlorocebus sabaeus
Human alphaherpesvirus 1 [7] = assay: Antiviral activity against Herpes simplex virus (type 1 / strain F) infected in Vero cells assessed as reduction of number of viral plaques at 100 uM after 2 days relative to control; format: functional; conditions: Human alphaherpesvirus 1, strain F, 48 h
[8] = Cytotoxicity against bovine MDBK cells assessed as cell viability after 3 days by MTS/PMS assay; format: cell-based, Bos taurus; conditions: cattle
Hepatitis B virus [9] = assay: Antiviral activity against Hepatitis B virus infected in HepG2(2.2.15) cells assessed as reduction in HBsAg level at 100 uM after 9 days by ELISA relative to control; format: functional; conditions: HepG2 2.2.15, 216 h
[10] = Cytotoxicity against human HepG2(2.2.15) cells assessed as cell viability after 9 days by MTS/PMS assay; format: cell-based
[11] = Antiviral activity against Bovine viral diarrhea virus 1-NADL ATCC VR534 infected in MDBK cells assessed as reduction of viral cytopathic effect at 100 uM after 2 days by MTS assay relative to control; format: functional; conditions: Bovine viral diarrhea virus isolates and strains, 48 h
Hepatitis B virus [12] = assay: Antiviral activity against Hepatitis B virus infected in HepG2(2.2.15) cells assessed as reduction in HBsAg level at 20 uM after 9 days by ELISA; format: functional; conditions: HepG2 2.2.15, 216 h
[13] = Antiviral activity against Bovine viral diarrhea virus 1-NADL ATCC VR534 infected in MDBK cells assessed as reduction of viral cytopathic effect after 2 days bt MTS assay; format: functional, cell-based; conditions: Bovine viral diarrhea virus isolates and strains, 48 h

SMILES	CC50 at 48 h [6]	inhibition at 100 µM (Human alphaherpesvirus 1 [7])	CC50 at 72 h [8]	inhibition at 100 µM (Hepatitis B virus [9])	CC50 at 216 h [10]	further results
O[C@@H]1Cc2ccccc2[C@@H]1n1cnc2c(Cl)ncnc21	–	–	–	–	–	CC50 at 72 h [1]: 14.3 µM; CC50 at 72 h [2]: 308 µM; inhibition at 31.25 µM (Human alphaherpesvirus 1 [3]): 20.9%; CC50 at 72 h [4]: 254 µM
Nc1nc2c(ncn2COCCO)c(=O)[nH]1 [ACYCLOVIR]	–	–	–	–	–	EC50 (Human alphaherpesvirus 1 [5]): 0.5 µM
Oc1ncnc2c1nnn2[C@@H]1c2ccccc2C[C@@H]1O	> 500 µM	12.8%	> 500 µM	35.3%	> 500 µM	–
Nc1ncnc2c1nnn2[C@@H]1c2ccccc2C[C@H]1O	> 500 µM	7.8%	> 500 µM	42.1%	> 500 µM	–
Nc1ncnc2c1nnn2[C@@H]1c2ccccc2C[C@@H]1O	202 µM	–	> 500 µM	17.6%	> 500 µM	inhibition at 100 µM [11]: 19.4%
Oc1ncnc2c1nnn2[C@H]1c2ccccc2C[C@@H]1O	> 500 µM	–	> 500 µM	25.2%	> 500 µM	–
Nc1ccn([C@@H]2CS[C@H](CO)O2)c(=O)n1 [LAMIVUDINE]	–	–	–	–	–	inhibition at 20 µM (Hepatitis B virus [12]): 45%
O[C@@H]1Cc2ccccc2[C@H]1n1cnc2c(Cl)ncnc21	> 500 µM	7.2%	> 500 µM	22.6%	> 500 µM	–
O[C@H]1Cc2ccccc2[C@@H]1n1cnc2c(Cl)ncnc21	> 500 µM	16.2%	> 500 µM	14.2%	> 500 µM	–
NC(=O)c1ncn([C@@H]2O[C@H](CO)[C@@H](O)[C@H]2O)n1 [RIBAVIRIN]	–	–	–	–	–	EC50 [13]: 4.6 µM
Oc1ncnc2c1nnn2[C@H]1c2ccccc2C[C@H]1O	> 500 µM	15.8%	> 500 µM	27.7%	> 500 µM	–
Nc1ncnc2c1nnn2[C@H]1c2ccccc2C[C@@H]1O	311 µM	14.5%	> 500 µM	37.2%	> 500 µM	–
Oc1ncnc2c1nnn2[C@@H]1c2ccccc2C[C@H]1O	> 500 µM	–	> 500 µM	16.6%	> 500 µM	–
Nc1ncnc2c1nnn2[C@H]1c2ccccc2C[C@H]1O	> 500 µM	20.9%	> 500 µM	41.4%	> 500 µM	inhibition at 100 µM [11]: 42.1%
O[C@H]1Cc2ccccc2[C@H]1n1cnc2c(Cl)ncnc21	> 500 µM	23.2%	> 500 µM	30.8%	> 500 µM	inhibition at 100 µM [11]: 19.7%
